Test results taken from US20100035932A1, “NOVEL FORMYL PEPTIDE RECEPTOR LIKE 1 AGONISTS THAT INDUCE MACROPHAGE TUMOR NECROSIS FACTOR ALPHA AND COMPUTATIONAL STRUCTURE-ACTIVITY RELATIONSHIP ANALYSIS OF THEREOF” (priority 2008, published 2010).
Read-outs that look alike come from different tables or passages of the source.

Key:
[1] = test system: human MonoMac6 macrophages; assay: TNF-α production in MonoMac6 cells (ELISA); assay type: cell-based; conditions: 24 hr, various concentrations
human neutrophils [2] = assay: Ca2+ mobilization in human neutrophils (FLIPR Calcium 3); conditions: Neutrophil
J774.A1 macrophages [3] = assay: ROS production in J774.A1 macrophages (L-012 luminescence); assay type: cell-based; conditions: Mus musculus, concentration that enhanced ROS production by 50% above background, read-out: ROS Production AC50, Murine Mφ
Experimental: (§1) Murine macrophage J774.A1 cells were cultured in DMEM supplemented with 10% (v/v) heat-inactivated fetal bovine serum (FBS), 10 mM HEPES, 100 μg/ml streptomycin, and 100 U/ml penicillin. Cells were grown to confluence in sterile tissue culture flasks and gently detached by scraping. Human monocyte/macrophage MonoMac6 cells (DSMZ, Germany) were cultured in RPMI 1640 supplemented with 10% (v/v) FBS, 10 μg/ml bovine insulin, 100 μg/ml streptomycin, and 100 U/ml penicillin. Rat basophilic leukemia (RBL-2H3) cells transfected with human FPR (RBL-FPR) or FPRL1 (RBL-FPRL1) were cultured in DMEM supplemented with 20% (v/v) FBS, 10 mM HEPES, 100 μg/ml streptomycin, and 100 U/ml penicillin, as described previously (Nanamori et al., 2004). Human monocytic THP-1 cells were cultured in RPMI 1640 medium supplemented with 10% (v/v) FBS, 100 μg/ml streptomycin, and 100 U/ml penicillin. All cell cultures were grown at 37° C. in a humidified atmosphere containing 5% CO2. Cell number and viability were assessed microscopically using trypan blue exclusion.
J774.A1 macrophages were plated at density of 1.5×10^5 cells/well in wells of 96-well flat-bottom white microtiter plates (Corning Incorporated, Costar). […] After 5 min, the media was replaced by HBSS+ containing 4 μM L-012 and 8 μg/ml HRP, and luminescence was monitored for 120 min (2-min intervals) at 37° C. using a Fluoroscan Ascent FL microtiter plate reader (Thermo Electron, Waltham, Mass.). The curve of light intensity (in relative luminescence units) was plotted against time, and the area under the curve was calculated as total luminescence. The percent activation of ROS was calculated as follows: % activation=(sample-DMSO control)/DMSO control×100. The minimal compound concentration that enhanced ROS production by 50% above background control cells (AC50) was determined by graphing the % activation of ROS vs. log [test compound]. Each curve was determined using five to seven compound concentrations. […] The results were analysed as described above to determine % activation and AC50 values.

FPRL1 = target: T1, FPRL1 (Homo sapiens, UniProt P25090); assay: Ca2+ mobilization in RBL-FPRL1 cells; assay type: cell-based
T1 construct: expressed in transfected cells; host or cells: rat basophilic leukemia RBL-2H3 cells (RBL-FPRL1)
T1 sequence (P25090 1-351): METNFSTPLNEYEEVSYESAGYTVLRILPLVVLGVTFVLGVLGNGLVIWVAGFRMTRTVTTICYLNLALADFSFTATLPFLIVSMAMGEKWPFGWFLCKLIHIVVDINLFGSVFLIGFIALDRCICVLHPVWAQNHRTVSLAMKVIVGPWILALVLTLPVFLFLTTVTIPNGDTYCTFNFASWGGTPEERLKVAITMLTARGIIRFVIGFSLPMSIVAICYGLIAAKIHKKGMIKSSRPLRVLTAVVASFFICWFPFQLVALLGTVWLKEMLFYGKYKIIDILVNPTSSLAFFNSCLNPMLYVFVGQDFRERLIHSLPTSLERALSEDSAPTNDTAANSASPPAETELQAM

J774.A1 macrophages [4] = assay: IL-6 production in J774.A1 macrophages (ELISA); assay type: cell-based, murine; conditions: J774.A1, 24 hr
Experimental: (§2) Cells were treated for 24 hr with DMSO control, test compound, or LPS and mouse TNF-α or IL-6 and human TNF-α enzyme-linked immunosorbent assay (ELISA) kits (BD Biosciences Pharmigen) were used to detect these cytokines in the cell supernatants. Cytokine concentration was determined by extrapolation from the TNF-α/IL-6 standard curve, according to the manufacturer's protocol.
(§3) For treatments, cells were plated in 96-well microtiter plates at 2×10^5 cells/well (J774.A1, MonoMac6) or 6×10^4 cells/well (human monocyte-derived macrophages) using their respective culture media, except FBS was reduced to 3% (v/v). After incubation overnight (5% CO2, 37° C.), the media were removed and replaced with fresh media containing test compounds.

human neutrophils [5] = assay: Chemotaxis assay, human neutrophils; assay type: cell-based; conditions: percent of response induced by 50 nM IL-8
[6] = test system: human monocyte-derived macrophages; assay: TNF-α production in human monocyte-derived macrophages (ELISA); assay type: cell-based; conditions: 24 hr, various concentrations
Experimental: as §2, §3

J774.A1 macrophages [7] = assay: TNF-α production in J774.A1 macrophages (ELISA); assay type: cell-based, murine; conditions: for fold induction at 50 µM: Mus musculus, J774.A1, 24 h, relative fold of activation compared to vehicle (DMSO) control for 50 μM compound, N.A. = no activity was observed, read-out: TNF-α production
[8] = test system: human monocytic cells THP-1; assay: TNF-α production in THP-1 cells (ELISA); assay type: cell-based; conditions: 24 hr, various concentrations
Experimental: as §1, with “All cell cultures were grown at 37° C. in a humidified atmosphere containing 5% CO2.” left out
as §2

J774.A1 cells = assay: Cytotoxicity assay (CellTiter-Glo); assay type: cell-based, murine; conditions: J774.A1, 24 hr
Experimental: Cytotoxicity was analyzed with a CellTiter-Glo Luminescent Cell Viability Assay Kit (Promega, Inc., Madison, Wis.), according to the manufacturer's protocol. Briefly, J774.A1 cells were cultured at a density of 3×10^4 cells/well with the test compounds for 24 hr at 37° C. and 5% CO2, substrate was added, and luminescence signal in the samples was analyzed with a Fluoroscan Ascent FL.

J774.A1 macrophages [9] = assay: cells; conditions: Mus musculus, J774.A1, read-out: Ca2+ Mobilization EC50, Murine Mφ
Experimental: Murine macrophage J774.A1 cells were cultured in DMEM supplemented with 10% (v/v) heat-inactivated fetal bovine serum (FBS), 10 mM HEPES, 100 μg/ml streptomycin, and 100 U/ml penicillin. Cells were grown to confluence in sterile tissue culture flasks and gently detached by scraping. […] All cell cultures were grown at 37° C. in a humidified atmosphere containing 5% CO2. Cell number and viability were assessed microscopically using trypan blue exclusion.

human neutrophils [10] = assay: ROS production in human neutrophils (L-012 luminescence); assay type: cell-based; conditions: Neutrophil, concentration that enhanced ROS production by 50% above background, read-out: ROS Production AC50, Human PMN
Experimental: J774.A1 macrophages were plated at density of 1.5×10^5 cells/well in wells of 96-well flat-bottom white microtiter plates (Corning Incorporated, Costar). After 16 hr (5% CO2, 37° C.), the media was aspirated, and test compounds or vehicle (final DMSO concentration of 1%) were added in fresh media (DMEM without phenol red, supplemented with 3% (v/v) FBS). After 5 min, the media was replaced by HBSS+ containing 4 μM L-012 and 8 μg/ml HRP, and luminescence was monitored for 120 min (2-min intervals) at 37° C. using a Fluoroscan Ascent FL microtiter plate reader (Thermo Electron, Waltham, Mass.). The curve of light intensity (in relative luminescence units) was plotted against time, and the area under the curve was calculated as total luminescence. The percent activation of ROS was calculated as follows: % activation=(sample-DMSO control)/DMSO control×100. The minimal compound concentration that enhanced ROS production by 50% above background control cells (AC50) was determined by graphing the % activation of ROS vs. log [test compound]. Each curve was determined using five to seven compound concentrations. Human neutrophils were plated at density of 5×10^5 cells/well in wells of 96-well flatbottom white microtiter plates, and compounds under investigation or vehicle (final DMSO concentration of 1%) were added. After 5 min, the media was replaced by HBSS+ containing […] L-012, and luminescence was monitored for 120 min (2-min intervals) at 37° C. using a Fluoroscan Ascent FL microtiter plate reader. The results were analysed as described above to determine % activation and AC50 values.

murine neutrophils = assay: Chemotaxis assay, murine neutrophils; assay type: cell-based; conditions: percent of response induced by 50 nM KC
[11] = test system: murine peritoneal macrophages; assay: TNF-α production in murine peritoneal macrophages (ELISA); assay type: cell-based; conditions: 24 hr, various concentrations
Experimental: Bone marrow leukocytes were flushed from tibias and femurs of BALB/c mice with HBSS− supplemented with 0.1% BSA and 1% glucose and the neutrophils were purified on Percoll density gradients, as previously described (Schepetkin et al., 2007). Peritoneal macrophages were isolated from BALB/c mice 4 days after intraperitoneal injection of 1 ml saline containing 100 μg concanavalin A, as described previously (Schepetkin et al., 2005). Peritoneal exudate cells were suspended in RPMI 1640 containing 10% (v/v) FBS with antibiotics (penicillin and streptomycin) and incubated at 37° C. in 100 mm tissue culture dishes for 1 h. Adherent peritoneal macrophages were harvested and cultured with the compounds under investigation for 24 hr at 37° C. and 5% CO2.
as §2

human FPR = target: T2, human FPR (Homo sapiens, UniProt P21462); assay: Ca2+ mobilization in RBL-FPR cells; assay type: cell-based
T2 construct: expressed in transfected cells; host or cells: rat basophilic leukemia RBL-2H3 cells (RBL-FPR)
T2 sequence (P21462 1-350): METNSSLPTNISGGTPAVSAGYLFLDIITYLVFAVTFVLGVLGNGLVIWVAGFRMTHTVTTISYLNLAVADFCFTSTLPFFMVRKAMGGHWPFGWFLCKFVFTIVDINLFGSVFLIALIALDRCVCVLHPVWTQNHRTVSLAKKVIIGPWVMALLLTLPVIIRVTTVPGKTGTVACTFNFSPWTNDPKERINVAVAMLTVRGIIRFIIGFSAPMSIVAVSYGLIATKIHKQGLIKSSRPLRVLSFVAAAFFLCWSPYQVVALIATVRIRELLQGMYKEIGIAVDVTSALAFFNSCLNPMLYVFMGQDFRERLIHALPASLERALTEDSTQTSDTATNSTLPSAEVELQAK

[12] = read-out: Ca2+ Mobilization EC50, Human PMN

Compound	EC50 (human neutrophils [2]; [12])	EC50 (human neutrophils [2]; read-out: [Ca2+]i EC50)	AC50 (J774.A1 macrophages [3])	IL-6 production (J774.A1 macrophages [4])	Chemotaxis (%), Human PMN (human neutrophils [5])	fold induction at 50 µM (J774.A1 macrophages [7])	EC50 (J774.A1 macrophages [9])	AC50 (human neutrophils [10])	Chemotaxis (%), Murine PMN (murine neutrophils)	further results
O=C(N/N=C/c1ccc(-c2cccc(C(F)(F)F)c2)o1)c1ccc(F)cc1 [Compound 2, 4-fluoro-benzoic acid [5-(3-trifluoromethyl-phenyl)-2-furyl]methylene-hydrazide]	0.6 ± 0.4 µM	0.6 µM	8.6 ± 2.7 µM	induced secretion of IL-6	91.3 ± 1.6%	30 to 40	2.3 ± 0.15 µM	0.2 ± 0.04 µM	58.0 ± 1.4%	TNF-α production in MonoMac6 cells [1]: induced TNF-α production in a concentration-dependent manner; EC50 (FPRL1): 18.3 µM; TNF-α production in human monocyte-derived macrophages [6]: induced TNF-α production in a concentration-dependent manner; Effect of Boc-2 (FPR/FPRL1 antagonist) on compound-induced TNF-α production (J774.A1 macrophages [7]; pretreated 5 min with Boc 2 (40 μM), then 50 μM compound 24 hr): inhibited; Effect of WRW4 (FPRL1 antagonist) on compound-induced TNF-α production (J774.A1 macrophages [7]; pretreated 5 min with WRW4 (10 μM), then 50 μM compound 24 hr): inhibited; Effect of PTX on induced TNF-α production (J774.A1 macrophages [7]; pretreated 30 min with PTX (0.4 and 1 μg/ml), then Compound 50 μM or LPS 50 ng/ml for 12 hr): significantly inhibited; Effect of ActD or CHX on compound-induced TNF-α production (J774.A1 macrophages [7]; pretreated with ActD 1 μg/ml or CHX 5 μg/ml 30 min, then 50 μM compound 12 hr): completely inhibited; TNF-α production in THP-1 cells [8]: induced TNF-α production in a concentration-dependent manner; Effect on cell viability (J774.A1 cells): had no effect on cell viability; TNF-α production in murine peritoneal macrophages [11]: induced TNF-α production in a concentration-dependent manner
COc1cc(/C=N\NC(=O)c2ccc3c(c2)OCO3)ccc1OCc1ccccc1 [Compound 6]	0.63 ± 0.39 µM	0.63 µM	26.9 ± 3.9 µM	failed to induce macrophage IL-6 production	98.0 ± 3.4%	5 to 8	4.2 ± 0.8 µM	38.6 ± 3.3 µM	174.8 ± 9.2%	EC50 (human FPR): 6.6 µM; TNF-α production, primary screening of agonists AG 1-26 (J774.A1 macrophages [7]; murine J774.A1 macrophages): induced modest levels of TNF-α production
